# Target: T1, Progesterone receptor (Rattus norvegicus, UniProt Q63449)
# T1 sequence (Q63449 whole entry): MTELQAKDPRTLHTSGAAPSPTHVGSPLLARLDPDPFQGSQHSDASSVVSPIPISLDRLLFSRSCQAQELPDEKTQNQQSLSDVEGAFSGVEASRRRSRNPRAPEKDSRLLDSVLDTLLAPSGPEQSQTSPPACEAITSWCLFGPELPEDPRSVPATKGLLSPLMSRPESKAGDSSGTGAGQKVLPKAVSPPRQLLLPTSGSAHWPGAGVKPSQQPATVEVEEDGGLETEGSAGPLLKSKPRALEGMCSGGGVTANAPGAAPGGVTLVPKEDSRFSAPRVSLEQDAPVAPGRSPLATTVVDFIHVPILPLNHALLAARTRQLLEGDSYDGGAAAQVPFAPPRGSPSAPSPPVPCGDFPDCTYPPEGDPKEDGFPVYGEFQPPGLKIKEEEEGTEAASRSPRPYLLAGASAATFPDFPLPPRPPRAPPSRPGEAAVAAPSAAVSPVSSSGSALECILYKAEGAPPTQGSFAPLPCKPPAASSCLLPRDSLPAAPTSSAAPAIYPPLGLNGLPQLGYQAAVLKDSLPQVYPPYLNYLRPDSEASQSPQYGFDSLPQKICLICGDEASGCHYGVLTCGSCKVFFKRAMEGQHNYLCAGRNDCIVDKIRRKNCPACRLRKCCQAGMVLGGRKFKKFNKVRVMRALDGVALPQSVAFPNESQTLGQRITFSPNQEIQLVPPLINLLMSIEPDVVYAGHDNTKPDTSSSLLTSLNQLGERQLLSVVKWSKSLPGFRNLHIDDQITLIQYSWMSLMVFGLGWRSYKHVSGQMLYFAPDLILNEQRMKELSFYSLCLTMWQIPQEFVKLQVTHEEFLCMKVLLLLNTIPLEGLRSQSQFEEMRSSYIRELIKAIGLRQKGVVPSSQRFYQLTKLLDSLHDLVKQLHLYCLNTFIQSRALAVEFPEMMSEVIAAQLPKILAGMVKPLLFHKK
# Test: Inhibitory progestational activity on oral administration in uterine C3 model
row,SMILES,IC50 [nM]
1,N#Cc1ccc(-c2ccc3c(c2)C2(CCCCC2)C(=S)N3)s1,92.5
2,"N#Cc1cc(F)cc(-c2ccc3c(c2)C2(CCCCC2)C(S)=N3)c1 [3-fluoro-5-(2'-thioxo-1',2'-dihydrospiro[cyclohexane-1,3'-indol]-5'-yl)benzonitrile]",7.43
3,CC(=O)O[C@]1(C(C)=O)CC[C@H]2[C@@H]3C[C@H](C)C4=CC(=O)CC[C@]4(C)[C@H]3CC[C@@]21C [17-Acetoxy-6alpha-methylprogesterone],67.3

# Continued, values first:
row,IC50 [nM],SMILES
1,942,N#Cc1cccc(-c2ccc3c(c2)C2(CCCCC2)C(=S)N3)c1
2,1120,S=C1Nc2ccc(-c3cccc(Cl)c3)cc2C12CCCCC2

# — BindingDB's records for doi:10.1016/s0960-894x(03)00129-x (Wyeth Research, 2003)
